Assay [1] deals with T1, Glucocorticoid Receptor (Homo sapiens, UniProt P04150).
T1 sequence (P04150 1-777): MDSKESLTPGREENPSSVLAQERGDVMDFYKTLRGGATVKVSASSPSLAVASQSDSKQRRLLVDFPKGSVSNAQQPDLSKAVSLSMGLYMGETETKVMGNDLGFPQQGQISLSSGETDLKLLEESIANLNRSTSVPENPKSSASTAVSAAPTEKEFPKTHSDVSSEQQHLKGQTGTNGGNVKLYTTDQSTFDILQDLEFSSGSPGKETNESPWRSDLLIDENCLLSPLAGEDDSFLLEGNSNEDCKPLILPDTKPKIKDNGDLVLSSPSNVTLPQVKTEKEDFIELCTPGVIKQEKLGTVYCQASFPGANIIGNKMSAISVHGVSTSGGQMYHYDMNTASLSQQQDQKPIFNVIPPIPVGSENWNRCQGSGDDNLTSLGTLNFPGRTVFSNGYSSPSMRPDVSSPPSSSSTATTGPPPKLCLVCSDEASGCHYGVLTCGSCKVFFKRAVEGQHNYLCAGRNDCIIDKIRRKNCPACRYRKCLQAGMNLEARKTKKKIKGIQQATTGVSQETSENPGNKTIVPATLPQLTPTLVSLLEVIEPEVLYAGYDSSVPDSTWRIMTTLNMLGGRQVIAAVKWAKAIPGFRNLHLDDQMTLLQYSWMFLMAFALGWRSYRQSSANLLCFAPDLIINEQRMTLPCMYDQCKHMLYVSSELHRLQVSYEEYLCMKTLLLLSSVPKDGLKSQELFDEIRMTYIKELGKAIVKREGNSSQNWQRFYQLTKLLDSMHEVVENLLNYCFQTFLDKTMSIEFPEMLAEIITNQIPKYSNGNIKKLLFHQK
Put plainly: Transactivation assay, A549 cells. Type of assay: cell-based.

The next assay relates to A549 cells. The assay is described as follows: A549 cell molecular profiling experiment. Type of assay: cell-based. The note with it: for Up-regulated genes in category DMSO (<0%) / Up-regulated genes in category Full (≧90%) / Up-regulated genes in category High (66.7-90%) / Up-regulated genes in category Low (0-33.3%) / Up-regulated genes in category Middle (33.3-66.7%): set of 1091 genes; for Down-regulated genes in category DMSO (<0%) / Down-regulated genes in category Full (≧90%) / Down-regulated genes in category High (66.7-90%) / Down-regulated genes in category Low (0-33.3%) / Down-regulated genes in category Middle (33.3-66.7%): set of 1249 genes.

In assay [2] the test system is CA77 cells. The assay is described as follows: CA77 cell assay, real-time RT-PCR (TaqMan). Type of assay: cell-based, rat. The method, then: Assay: CA77 cells were plated into 96 well tissue culture dishes at a density of 8×10^4 cells per well in 200 μl of PM and the cultures maintained in a humidified air atmosphere (7.5% CO2) at 37° C. This media was aspirated after 24 hours and replaced with 200 μl of GM and the cultures incubated as before, for an additional 48 hours, at which time the cultures were at approximately 90% confluency.
For the evaluation of agonist activity, the GM was aspirated, replaced with 200 μl of fresh GM containing concentrations of a drug ranging from 0.1 nM to 10,000 nM in a 10-fold dilution series. Control wells of 0 nM drug in GM and 0.1% DMSO in GM were included in the series for each drug. Each drug concentration and the two controls were evaluated on 4 wells. The cultures were maintained in a humidified air atmosphere (7.5% CO2) at 37° C. for 24 hours.
Control wells of 0 nM drug in GM containing 250 nM corticosterone and 0.1% DMSO in GM (without corticosterone) were included in the series for each drug. Each drug concentration and the two controls were evaluated on 4 wells. The cultures were maintained in a humidified air atmosphere (7.5% CO2) at 37° C. for 24 hours.
Lysis of Cells and Isolation of mRNA: Two methods were employed for the lysis of the cells and the isolation of mRNA at the end of the 24-hour incubation with the drugs.
One method was the mRNA Catcher™ Method (using Kit number 37001, sold by Invitrogen Corporation). The GM was aspirated from the cells, the cell monolayer was washed once with PBS (product number 10010, sold by Invitrogen Corporation), and then the cells were lysed in 30 μl of the kit lysis buffer containing 1% β-ME for 5 minutes at room temperature. The lysates were snap frozen in the 96-well plate by placing the plate on dry ice pellets, and the plate was then stored at −80° C.
The lysates were thawed at room temperature and then transferred into individual wells in the mRNA Catcher™ plate. The plate was covered and incubated for 90 minutes at room temperature for RNA hybridization. […]
(In general: In qPCR the cycle at which signal appears reflects the starting amount.)

The subject of another assay is Sult1a1. The assay is described as follows: In vivo Sult1a1 expression assay (Example 2). Also noted: species or system rat. The note with it: co-administered with dexamethasone. The method, then:
Methods: […] […] The rats were sacrificed 6 hours after the final dose and the hippocampus, raphe and caudate nucleus were dissected and placed in […]® (Qiagen, Valencia, Calif.) for 24 hours. The tissue was then placed in a fresh tube and stored at -80 C. Total RNA was prepared using Trizol® (InVitrogen, Carlsbad, Calif.) using the manufacturer's standard protocol. The total RNA was DNase treated and cDNA was made using the methods described in Example 1 in connection with CA77 cell cDNA preparation.

Assay [3] has as its target T1, Glucocorticoid Receptor. Put plainly: Transrepression assay, COS cells. Also noted: host or cells: COS cells. Type of assay: cell-based.
Assay [4] deals with T1, Glucocorticoid Receptor. Put plainly: Classification of effect on the glucocorticoid receptor. Type of assay: cell-based. Also noted: host or cells: COS cells. Particulars: as assessed by MDA and A549 transactivation and COS transrepression assays.
In assay [5] the test system is RGS2, RGS4 and Sult1a1 gene expression. Put plainly: In vivo RT-PCR of rat caudate and raphe nucleus (Example 1). From the text: Cross-hatched bars represent RGS2 gene expression. Unhatched bars represent RGS4 gene expression. ** p=0.003. * p=0.001.
Cross-hatched bars represent Sult1a1 gene expression in the caudate nucleus. Unhatched bars represent Sult1a1 gene expression in the raphe nucleus. *p<0.001.

Assay [6] deals with T1, Glucocorticoid Receptor. Put plainly: Transactivation assay, MDA cells. Type of assay: cell-based. Also noted: host or cells: MDA cells. The note with it: maximal response.
The target in assay [7] is T2, MR (mineralocorticoid receptor) (Homo sapiens, UniProt P08235).
T2 sequence (P08235 1-984): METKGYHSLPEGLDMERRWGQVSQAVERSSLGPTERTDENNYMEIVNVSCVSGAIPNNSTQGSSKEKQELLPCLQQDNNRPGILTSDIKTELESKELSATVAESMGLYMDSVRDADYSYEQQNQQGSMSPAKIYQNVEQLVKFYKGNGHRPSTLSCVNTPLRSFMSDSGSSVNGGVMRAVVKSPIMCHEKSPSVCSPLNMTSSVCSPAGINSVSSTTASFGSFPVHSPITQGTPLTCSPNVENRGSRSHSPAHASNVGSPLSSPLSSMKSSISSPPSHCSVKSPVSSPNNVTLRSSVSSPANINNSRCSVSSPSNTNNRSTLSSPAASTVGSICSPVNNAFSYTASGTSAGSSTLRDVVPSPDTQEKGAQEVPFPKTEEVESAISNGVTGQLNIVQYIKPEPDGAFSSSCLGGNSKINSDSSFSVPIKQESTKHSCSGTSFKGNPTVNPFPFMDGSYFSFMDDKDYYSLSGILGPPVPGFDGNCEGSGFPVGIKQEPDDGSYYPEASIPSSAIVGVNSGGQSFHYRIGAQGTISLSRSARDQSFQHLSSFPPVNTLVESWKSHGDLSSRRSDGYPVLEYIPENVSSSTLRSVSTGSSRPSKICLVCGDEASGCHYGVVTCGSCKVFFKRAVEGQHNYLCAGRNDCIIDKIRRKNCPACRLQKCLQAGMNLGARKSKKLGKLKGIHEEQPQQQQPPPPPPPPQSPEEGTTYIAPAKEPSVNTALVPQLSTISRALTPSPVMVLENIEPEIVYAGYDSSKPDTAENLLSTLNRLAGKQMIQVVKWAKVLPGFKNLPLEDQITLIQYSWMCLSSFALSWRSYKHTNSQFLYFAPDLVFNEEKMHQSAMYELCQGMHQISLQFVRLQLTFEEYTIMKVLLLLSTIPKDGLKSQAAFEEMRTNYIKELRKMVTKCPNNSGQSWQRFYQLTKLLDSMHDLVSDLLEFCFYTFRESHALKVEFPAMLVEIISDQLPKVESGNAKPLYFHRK
The assay is described as follows: MR binding study. From the text: The following abbreviations are used in Table II: MR, mineralocorticoid receptor; GR, glucocorticoid receptor; and PR, progesterone receptor.

In a further assay the test system is RGS2 and RGS4 mRNA. The note with it: cited from earlier work.
For assay [8], the system named is CA77 cells. The assay is described as follows: CA77 cell microarray profiling. Type of assay: cell-based, rat. The method, then: In order to reduce false positives, progesterone, estradiol, and aldosterone served as out-groups for non-specific effects. Samples were collected at both 6 hours and 24 hours after contacting the CA77 cells with a compound.

Structures are written as SMILES.

Take `CC#C[C@]1(O)CC[C@H]2[C@@H]3CCC4=CC(=O)CCC4=C3[C@@H](c3ccc(N(C)C)cc3)C[C@@]21C` [RU-486, mifepristone]: on Glucocorticoid Receptor [1] (A549, read-out: Transactivation, A549 Emax), the Emax (as a rule, the maximal effect, on the per cent scale that the assay sets) turned out to be 90%. For the same compound, in the assay on A549 cells (1 μm), the “Up-regulated genes in category DMSO (<0%)” value worked out at 287, the “Up-regulated genes in category Full (≧90%)” value is 38, the “Up-regulated genes in category High (66.7-90%)” value is reported as 63 and the “Up-regulated genes in category Low (0-33.3%)” value is listed as 449. For the same compound, in the assay with A549 cells (1 μm), the “Up-regulated genes in category Middle (33.3-66.7%)” value turned out to be 254, the “Down-regulated genes in category DMSO (<0%)” value turned out to be 454, the “Down-regulated genes in category Full (≧90%)” value came to 41 and the “Down-regulated genes in category High (66.7-90%)” value worked out at 70. In addition, in the assay with A549 cells (1 μm), the “Down-regulated genes in category Low (0-33.3%)” value was 418 and the “Down-regulated genes in category Middle (33.3-66.7%)” value is 266. In the assay on CA77 cells [2] (CA77 cells, co-administered with dexamethasone), the “Effect on up-regulation of RGS2, Sult1a1, IL6R and SGK by a GR agonist” value is on record as “reversal of this effect”. Besides, the “Effect on dexamethasone-induced Sult1a1 upregulation in the hippocampus” value in the assay with Sult1a1 is listed as “reversal of this effect”. Also, at Glucocorticoid Receptor [3] (COS, read-out: Transrepression, COS % Emax, 1 uM), the Emax at 1 µM came out at 40%. Moreover, at Glucocorticoid Receptor [4], the “Effect on the glucocorticoid receptor (degree of agonist activity)” value is reported as “low partial agonist activity”.

Take `C[C@H]1C[C@@H]2[C@H]([C@@H](O)C[C@@]3(C)[C@H]2CC[C@]3(O)C(=O)CO)[C@@]2(C)C=CC(=O)C=C12` [M-Prednisolone, 6α-methylprednisolone]: the “Transactivation, A549 Emax” value at Glucocorticoid Receptor [1] (maximal response) worked out at 124%. The “RGS4 expression in caudate nucleus” value in assay [5] (down-regulated) is “about 50 % of control levels”. Besides, the “RGS2 expression in caudate nucleus” value in assay [5] (upregulated vs vehicle) is listed as 2 fold. In addition, the “Transactivation, MDA Emax” value at Glucocorticoid Receptor [6] was 104%. The “Transrepression, COS % Emax, 0.3 μM” value on Glucocorticoid Receptor [3] (0.3 μM) came out at 100%. The “Transrepression, COS % Emax, 1 uM” value at Glucocorticoid Receptor [3] (1 uM) came out at 100%.

For the compound `C[C@]12C=CC(=O)C=C1CC[C@@H]1[C@@H]2[C@@H](O)C[C@@]2(C)[C@H]1CC[C@]2(O)C(=O)CO` [Prednisolone, prednisolone], the IC50 (as a rule, the midpoint of a concentration-inhibition curve) in [7] was 0.98 nM. Moreover, in the assay with A549 cells (100 nM), the “Up-regulated genes in category DMSO (<0%)” value amounted to 0, the “Up-regulated genes in category Full (≧90%)” value was 940, the “Up-regulated genes in category High (66.7-90%)” value amounted to 150 and the “Up-regulated genes in category Low (0-33.3%)” value was 0. Moreover, in the assay on A549 cells (100 nM), the “Up-regulated genes in category Middle (33.3-66.7%)” value was 1, the “Down-regulated genes in category DMSO (<0%)” value is listed as 0, the “Down-regulated genes in category Full (≧90%)” value is reported as 1140 and the “Down-regulated genes in category High (66.7-90%)” value was 109. In the assay on A549 cells (100 nM), the “Down-regulated genes in category Low (0-33.3%)” value came out at 0 and the “Down-regulated genes in category Middle (33.3-66.7%)” value is on record as 0. On Glucocorticoid Receptor [4], the “Effect on the glucocorticoid receptor (degree of agonist activity)” value was “full agonist activity”.

For the compound `O=C(CCCN1CCC(O)(c2ccc(Cl)cc2)CC1)c1ccc(F)cc1` [haloperidol], in the assay on RGS2 and RGS4 mRNA, the “RGS2 mRNA” value is on record as “up-regulated” and the “RGS4 mRNA levels” value is “down-regulation”.

With `C[C@]12CCC(=O)C=C1CC[C@@H]1[C@@H]2[C@@H](O)C[C@]2(C=O)[C@@H](C(=O)CO)CC[C@@H]12` [aldosterone], in the assay on CA77 cells [8] (6 hours), the “Activity in the GR agonist signature at 6 hours” value is “little or no activity”. Also, the “Presence of the GR agonist signature” value with CA77 cells [8] (response at 24 hours) is recorded as “weakly present”.

For `C[C@]12C[C@H](O)[C@H]3[C@@H](CCC4=CC(=O)CC[C@@]43C)[C@@H]1CC[C@@H]2C(=O)CO` [corticosterone], the response in the assay with CA77 cells [2] (Rattus norvegicus, CA77 cell assay) was half-maximal at 250 nM (EC50).

The values above are taken from patent publication US20100040552A1, “METHODS TO EVALUATE GLUCOCORTICOID RECEPTOR AGONISTS AND ANTAGONISTS FOR EFFECTS ON NEURON-LIKE CELLS” (ROSETTA INPHARMATICS LLC, priority 2005, published 2010).
